For three molecules, IC50 results are on record in article PMC3393770 (Chembiochem, 2012).

This assay has as its target T1, Saccharomyces cerevisiae 20S proteasome, β5 subunit (chymotrypsin-like activity) (Saccharomyces cerevisiae, UniProt P23724+P30656).
T1 sequence (P30656 76-287): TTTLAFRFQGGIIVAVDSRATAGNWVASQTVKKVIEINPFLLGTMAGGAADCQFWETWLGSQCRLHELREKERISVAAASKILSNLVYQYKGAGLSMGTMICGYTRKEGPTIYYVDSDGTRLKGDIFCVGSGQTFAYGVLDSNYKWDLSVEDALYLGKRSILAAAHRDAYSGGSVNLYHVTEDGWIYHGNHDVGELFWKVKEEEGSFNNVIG
T1 sequence (P23724 20-241): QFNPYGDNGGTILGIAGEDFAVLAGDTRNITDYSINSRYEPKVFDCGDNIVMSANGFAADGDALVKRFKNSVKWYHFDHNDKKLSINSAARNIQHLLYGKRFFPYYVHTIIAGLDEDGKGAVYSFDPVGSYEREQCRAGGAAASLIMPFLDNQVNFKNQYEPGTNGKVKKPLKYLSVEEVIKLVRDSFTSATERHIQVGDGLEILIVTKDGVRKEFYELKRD
The assay can be described thus: […] proteasome β[…]. Type of assay: biochemical.

[1] abbreviates: read-out: Proteasome Inhibition(IC50), chymotrypsin-like site, 0.5 μg/mL proteasome, covalent (α,β-epoxyketone, Thr1).

Read-outs that look alike come from different tables or passages of the source.

The IC50 is the concentration needed to halve the response being measured.

As for `CCCCCC(=O)N[C@H](C(=O)N[C@@H](CC[S+](C)[O-])C(=O)N[C@@H](CC(C)C)C(=O)[C@@]1(C)CO1)C(C)C` (mixture of isomers) [compound 1, carmaphycin A], the IC50 under setting [1] stood at 2.5 ± 0.3 nM. `CCCCCC(=O)N[C@H](C(=O)N[C@@H](CCS(C)(=O)=O)C(=O)N[C@@H](CC(C)C)C(=O)[C@@]1(C)CO1)C(C)C` [compound 2, carmaphycin B]: under setting [1], the IC50 stood at 2.6 ± 0.9 nM. Take `C[C@@]12OC(=O)[C@]1([C@@H](O)[C@@H]1C=CCCC1)NC(=O)[C@@H]2CCCl` [compound 11, salinosporamide A]: the IC50 was determined as 1.4 ± 0.2 nM.
